Assay results taken from ChEMBL document CHEMBL1201862, “PubChem BioAssay data set” (2004).
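Growth conditions: 96-well plates. Treatment: test compound, 48 hours, 5 concentrations. Analysis: linear interpolation between bracketing concentrations; unreached endpoints set to highest concentration. GI50 = concentration required for 50% inhibition of growth.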 The source made the active and inactive calls. Cut-off read from the data, not from the text of the source: active = GI50 up to about 1.1 µM and inactive = higher.

Experiments:
Assay in all cases: inhibition of tumour cell growth, NCI panel, 48 h
SK-MEL-2 = test system: SK-MEL-2
K562 = test system: K562
HCT-15 = test system: HCT-15
MDA-MB-435 = test system: MDA-MB-435
DU-145 = test system: DU-145
ACHN = test system: ACHN
OVCAR-3 = test system: OVCAR-3
M14 = test system: M14
KM12 = test system: KM12
U-251 = test system: U-251
NCI-H23 = test system: NCI-H23
EKVX = test system: EKVX
SNB-75 = test system: SNB-75
SN12C = test system: SN12C
NCI/ADR-RES = test system: NCI/ADR-RES
RXF 393 = test system: RXF 393
SR = test system: SR
A498 = test system: A498
NCI-H460 = test system: NCI-H460
SF-268 = test system: SF-268

Row | SMILES | GI50 (SK-MEL-2) | GI50 (K562) | GI50 (HCT-15) [µM] | GI50 (MDA-MB-435) | GI50 (DU-145) | GI50 (ACHN) | GI50 (OVCAR-3) | GI50 (M14) | GI50 (KM12) | GI50 (U-251) | GI50 (NCI-H23) | GI50 (EKVX) | GI50 (SNB-75) | GI50 (SN12C) | GI50 (NCI/ADR-RES) | GI50 (RXF 393) | GI50 (SR) | GI50 (A498) | GI50 (NCI-H460) | GI50 (SF-268)
1 | O=C(O)C(=O)Cc1ccc2c(c1)OCO2 | > 100 µM (inactive) | > 100 µM (inactive) | > 100 | > 100 µM (inactive) | > 100 µM (inactive) | > 100 µM (inactive) | > 100 µM (inactive) | > 100 µM (inactive) | > 100 µM (inactive) | > 100 µM (inactive) | > 100 µM (inactive) | > 100 µM (inactive) | > 100 µM (inactive) | > 100 µM (inactive) | > 100 µM (inactive) | > 100 µM (inactive) | > 100 µM (inactive) | > 100 µM (inactive) | > 100 µM (inactive) | –
2 | O=C1NC(N2CCCCC2)=N/C1=C\c1ccccc1O | > 100 µM (inactive) | > 100 µM (inactive) | > 100 | > 100 µM (inactive) | > 100 µM (inactive) | > 100 µM (inactive) | > 100 µM (inactive) | > 100 µM (inactive) | > 100 µM (inactive) | > 100 µM (inactive) | > 100 µM (inactive) | > 100 µM (inactive) | 27.9 µM (inactive) | > 100 µM (inactive) | > 100 µM (inactive) | > 100 µM (inactive) | > 10 µM (inactive) | > 100 µM (inactive) | – | > 100 µM (inactive)
3 | O=C(O)c1nc2ccc(C(F)(F)F)cc2nc1NCc1ccc(F)cc1 | 19.5 µM (inactive) | 19.6 µM (inactive) | 21.2 | > 100 µM (inactive) | > 100 µM (inactive) | 27.2 µM (inactive) | 8.34 µM (inactive) | 18.5 µM (inactive) | 26.4 µM (inactive) | 16.7 µM (inactive) | 24 µM (inactive) | 25.6 µM (inactive) | 35.2 µM (inactive) | 17.5 µM (inactive) | 35.5 µM (inactive) | > 100 µM (inactive) | 15.3 µM (inactive) | 23.7 µM (inactive) | 19.4 µM (inactive) | –
4 | C1=C\CCCCN2C[C@H]3CCCC/C=C\CCCCN4CC[C@@H]([C@H](CCCCCC/1)C4)[C@H](C3)C2 | 1.88 µM (inactive) | 1.47 µM (inactive) | 1.77 | 1.86 µM (inactive) | 5.48 µM (inactive) | 2.07 µM (inactive) | 1.8 µM (inactive) | – | 1.82 µM (inactive) | 2.2 µM (inactive) | 6.24 µM (inactive) | 7.11 µM (inactive) | 2.16 µM (inactive) | 10 µM (inactive) | 3.12 µM (inactive) | 1.52 µM (inactive) | 2.4 µM (inactive) | 6.65 µM (inactive) | 1.76 µM (inactive) | 2.65 µM (inactive)
5 | O=c1c2c(sc3ccccc13)NCN(CCc1ccccc1)C2 | 23.8 µM (inactive) | 19.7 µM (inactive) | – | 35.1 µM (inactive) | 70.5 µM (inactive) | 35.2 µM (inactive) | 73.3 µM (inactive) | 27 µM (inactive) | 27.9 µM (inactive) | 36.8 µM (inactive) | 38.1 µM (inactive) | 30.8 µM (inactive) | 16.6 µM (inactive) | 41.8 µM (inactive) | 20.7 µM (inactive) | 36.3 µM (inactive) | 42.2 µM (inactive) | 67.9 µM (inactive) | 32.7 µM (inactive) | –
6 | COC(=O)c1ccccc1C1CN=NC12Cc1ccc3ccccc3c1C2=O (stereo not drawn) | > 100 µM (inactive) | > 100 µM (inactive) | > 100 | 30.7 µM (inactive) | > 100 µM (inactive) | > 100 µM (inactive) | 17.7 µM (inactive) | > 100 µM (inactive) | 52.5 µM (inactive) | > 100 µM (inactive) | – | > 100 µM (inactive) | > 100 µM (inactive) | > 100 µM (inactive) | > 100 µM (inactive) | 78.3 µM (inactive) | 36.5 µM (inactive) | > 100 µM (inactive) | 80 µM (inactive) | > 100 µM (inactive)
